The values below come from patent US20260258000A1, “THYMIDYLATE SYNTHASE INHIBITORS AND USES THEREOF” (University of Florida Research Foundation, Incorporated, priority 2021, published 2026).

The structures appear in SMILES notation. Entries after “also recorded” stand apart in the source; their conditions may differ.

The target of series [1] is T1, human thymidylate synthase (hTS) (Homo sapiens, UniProt P04818).
T1 construct: 6xHis (N); made in house; host or cells: E. coli BL21 (DE3)
The series can be described thus: Tritium based TS catalytic activity assay. The series is classed as biochemical. The method, then: The catalytic activity of TS was determined by measuring the release of [31] from [5-3H]dUMP (ViTrax, VT122) resulting from the conversion of dUMP to dTMP as previously described12,33. […] Reactions were performed in 50 mM KH2PO4 (Sigma Aldrich, P0662) at pH 7.2 using 2 μg of purified human TS. Reactions were performed in a final volume of 200 μL with 100 mM β-mercaptoethanol (Sigma Aldrich, M7522), 40 μM dUMP (Sigma Aldrich, D3876), 100 μM 5,10-mTHF, and the [5-3H]dUMP tracer (ViTrax, VT122) accounting for 0.06% of the final dUMP concentration in the reaction. […] Reactions were initiated by the addition of the dUMP substrate and 5,10-mTHF cofactor, then incubated at 37° C. for 30 minutes. […] Reactions were terminated by the addition of 100 μL of ice-cold 20% trichloroacetic acid (Sigma Aldrich, T6399), then excess [5-31-]dUMP was removed by the addition of 200 μL of an albumin-coated activated charcoal solution. The albumin-coated activated charcoal solution was prepared by mixing 10 g of acid-washed activated dextran coated charcoal (Sigma Aldrich, C6241) with 2.5 g of bovine albumin (Sigma Aldrich, A1933) in 100 mL of H2O. The suspension was incubated at room temperature for 30 minutes and then centrifuged for 30 minutes at 10,000×g. […] For all experiments, positive control reactions were performed with no drug representing 100% TS activity, and negative control reactions were performed with no TS enzyme or no 5,10-mTHF substrate representing 0% TS activity. All assays were performed in biological duplicate and technical duplicate. Results were analyzed using GraphPad Prism 8.

The target in another series is T2, human TS (Homo sapiens, UniProt P04818).
T2 construct: 6xHis (N); made in house; host or cells: E. coli BL21 (DE3)
The series is described as follows: Competitive drug displacement assay (tritium TS assay). The conditions noted are these: TS pre-incubated with drug. The series is classed as biochemical. As for the experimental part: For these experiments the TS protein was first incubated with each drug, the reaction was then initiated by addition of 5,10-mTHF and dUMP using different concentrations of either 5,10-mTHF or dUMP to change the substrate:drug ratio. If there was competition between one of the substrates and the drug for the same binding site, increasing the substrate concentration will displace more of the pre-bound drug and shift the equilibrium towards the enzyme: substrate complex, thus allowing the conversion of dUMP to proceed (FIG. 5A).
The competitive drug displacement assay utilized the standard reaction conditions for the tritium based TS catalytic activity assay including 40 μM dUMP (Sigma Aldrich, D3876) with the [5-3H]dUMP tracer (ViTrax, VT122) accounting for 0.06% of the final dUMP concentration and 100 μM 5,10-methylene tetrahydrofolate (defined as 1× dUMP and 1×5,10-mTHF). Concentrations of total dUMP and 5,10-mTHF were then changed relative to these 1× concentrations to concisely indicate the changes in either the substrate or cofactor concentration. […] The remaining components in each 200 μL reaction were consistent in all reactions and included 2 μg of purified human TS in 50 mM KH2PO4 (Sigma Aldrich, P0662) and 100 mM β-mercaptoethanol (Sigma Aldrich, M7522).

The test system of series [2] is Luc-PANC-1 xenograft tumors. The series is described as follows: Luc-PANC-1 subcutaneous xenograft tumor model. It is filed as in vivo, NSG mice. The following applies: for median survival: control 54 days. As for the experimental part: Luc-PANC-1 (5×106) and Luc-CM (0.5×106) cells were resuspended in 200 ul of PBS and injected subcutaneously (SQ) or intraperitonially (IP) to 6-8-week-old NSG mice respectively. Tumor bearing mice were imaged using Xenogen IVIS® Lumina Bioluminescence Imaging System (Perkin Elmer) every week after cell injection. At 4 weeks, animals were randomized based on slope of luciferase signal and treatment was initiated. […] For all animals body weight was recorded weekly and Luc-PANC-1 tumor volume was measured weekly with a caliper. For scheduled sacrifice experiments, animals were euthanized after 4 weeks of treatment. […] Harvested tumors were excised and weighted, and fixed in alcoholic formalin (67.5% Ethanol, 10% Formaldehyde 37%, 22.5% water) for pathology analysis. Tumor volume was calculated as [volume=0.52 (length×width2)].
From this stock, the exact volume needed for daily in vivo delivery was then formulated into 95% corn oil (Mazola) at 2 different concentrations: 1.25 mg/mi (formulation 1) and 3.125 mg/ml (formulation 2). To determine the volume of solution administered to the mice, 200 μl (maximum volume to be delivered in mice via IP or oral gavage) was divided by 25 g of mouse body weight. Therefore, 8 μl of formulation 1 or 2 multiplied by the weight of the mice were used to reach a dose of 10 or 25 mg/kg of body weight, respectively.
Prior to bioluminescence imaging the region where tumors were located was shaved. Mice were then anesthetized with 2.5% isoflurane in 02 then administered the D-luciferin substrate (150 mg/kg in PBS) by IP injection. Following the injection of the D-luciferin substrate mice were imaged using the Xenogen IVIS® Lumina Bioluminescence Imaging System (Perkin Elmer). The peak of luciferase photon flux was recorded 6 minutes after injection of the D-luciferin substrate. The total photon flux was analyzed and restricted to tumor ROI (region of interest) using Living Image v2.60.1 software (Imaging Systems).

Series [3] is described as follows: Maximum tolerated dose (MTD) study. The series is classed as in vivo. The text has this: After 3 treatment cycles, animals rested (no treatment) for one more week before euthanasia. Body weight and physical status of all mice were closely monitored. Tissues were collected and fixed in alcoholic formalin to test for toxicity.
The subject of another series is BON cells. The series is described as follows: Cell viability (MTS) assay, BON. It is filed as cell-based. The following applies: 72 hour drug incubation (FIG. 1C).

T1 sequence (P04818 whole entry): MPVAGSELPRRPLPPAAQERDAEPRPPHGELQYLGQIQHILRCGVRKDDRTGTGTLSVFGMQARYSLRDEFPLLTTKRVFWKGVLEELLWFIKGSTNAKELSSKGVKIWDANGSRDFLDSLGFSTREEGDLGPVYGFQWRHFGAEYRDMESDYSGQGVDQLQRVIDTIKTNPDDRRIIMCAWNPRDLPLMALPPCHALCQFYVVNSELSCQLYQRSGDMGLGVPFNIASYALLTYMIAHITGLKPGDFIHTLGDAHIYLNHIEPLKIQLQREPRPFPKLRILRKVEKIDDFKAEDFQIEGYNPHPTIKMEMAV
T2 sequence (P04818 whole entry): as above

As usually defined, the MTD is the highest dose tested that stayed within the study's limit of toxicity. For orientation: IC50 means the midpoint of a concentration-inhibition curve. Higher therefore signals lower potency. Take `CCc1nc(N)nc(N)c1-c1ccc(N(C)Cc2ccccc2)c([N+](=O)[O-])c1` [Compound 19-S]: in series [1] (250 uM (FIG. 4A)), the “inhibition of TS catalytic activity, 19-S series library screen” value is on record as “inhibited TS activity”. Moreover, the “TS inhibition at decreasing drug concentrations” value in series [1] (compared with Pem and MTX controls (FIG. 4C)) was “greater TS inhibition than both MTX and Pen; also recorded: both strong TS and DHFR inhibition”. In addition, the “TS activity (conversion of dUMP)” value in series [1] (drug 250 μM, 10 μg/mL bacterially expressed TS protein (FIG. 1B)) is recorded as “comparable TS inhibition as seen with the 5-FU metabolite FdUrd”. The “dUMP conversion with increasing 5,10-mTHF concentration (drug displacement)” value at human TS (5,10-mTHF up to 5×) is recorded as “increased the amount of dUMP conversion”. Further, the “dUMP conversion with increasing dUMP concentration (drug displacement)” value at human TS (dUMP up to 5×) is listed as “the amount of dUMP conversion did not increase”. Further, the median survival in series [2] (10 mg/kg PO until survival endpoint) was 68 days; in series [2] (25 mg/kg PO until survival endpoint), 84 days. In addition, the body weight entry in series [2] (25 mg/kg IP, 4 cycles, vs vehicle) is recorded as “no significant deviations”; in series [2] (10 or 25 mg/kg PO, survival study, vs vehicle) it was “no significant differences”. Moreover, in series [2] (25 mg/kg IP, 4 cycles, p=0.0029 vs vehicle), the final tumor mass entry is on record as “significantly reduced”. Further, the “tumor progression (bioluminescence photon flux, tumor volume)” value in series [2] (25 mg/kg IP, 5 days on/2 days rest, 4 cycles, p=0.0023 flux, p<0.0001 volume vs vehicle) was “inhibited tumor progression”. Besides, the “adverse effects / body weight” value in series [2] (25 mg/kg oral gavage, 4 cycles) is recorded as “did not show adverse effects or declines in body weight”. In series [2] (25 mg/kg oral gavage, 4 cycles (FIGS. 7A-7H)), the “tumor progression (photon flux, tumor volume, excised tumor mass)” value is reported as “inhibited tumor progression”. In addition, the “survival compared to vehicle control” value in series [2] (10 or 25 mg/kg PO (either dose), Kaplan-Meier) is “statistically significant (p=0.0027) prolonged survival”. The “total flux (bioluminescence)” value in series [2] (10 or 25 mg/kg PO, at 6 weeks after cell injection, vs vehicle) is “significant reduction of total flux”. The tumor volume result in series [2] (10 or 25 mg/kg PO, p=0.0079, maintained till endpoint) is “significant inhibition of tumor volume”. In addition, the mortality entry in series [3] (50 mg/kg IP, n=3 (FIG. 10B)) is “found dead after 12th, 13th and 14th dose”; in series [3] (50 mg/kg IP, n=3 (FIG. 10C)), 2 were found dead after 1st dose and one animal reached endpoint; in series [3] (100 mg/kg IP, n=2 (FIG. 10B)), “found dead after 1st and 3rd dose”; in series [3] (100 mg/kg IP, n=3 (FIG. 10C)), “found dead after 1st dose”. Also, the MTD at 3 treatment cycles of 5 consecutive daily doses in series [3] (mouse, in vivo, IP, NSG mice, read-out: maximum tolerated dosage (MTD)) is 25 mg/kg. Also, in the series with BON cells, the midpoint of inhibition, the IC50, lay at 120 nM.
